{
  "source": "patent US5670538A",
  "about": "“Use of prodelphinidins for obtaining medicaments intended for the treatment of arthrosis” (Laboratoires Dolisos, priority 1992, dated 1997)",
  "tested_on": "ferricytochrome C",
  "test": "Control experiments: direct reduction of ferricytochrome C by the product itself",
  "format": "biochemical",
  "settings": "effect not quantifiable",
  "description": "This effect not being quantifiable, no conclusion can consequently be drawn on a possible inhibiting effect of these products on the production of the superoxide anion by the activated PMNs.",
  "data": [
    {"smiles": "O=c1ccc2cc(O[C@@H]3O[C@H](CO)[C@@H](O)[C@H](O)[C@H]3O)c(O)cc2o1", "note": "[esculoside, reference compound]", "values": [
      {"measurement": "Direct reduction of ferricytochrome C", "result": "powerful reducers of ferricytochrome C"}
    ]}
  ]
}
